Test results: US20040162422A1, “Chemical compounds” (priority 2001, published 2004)

Columns and labels:
[1] = biological target: T1, human adenosine A1 receptors (Homo sapiens, UniProt P30542); assay: Reporter gene experiments in yeast (agonist activity, β-galactosidase/FDG readout); type: cell-based; parameters: key: equipotent concentration ratio relative to NECA = 1; settings: ECR = equipotent concentration ratio relative to NECA = 1; agonist potency, yeast reporter gene assay
T1 construct: expressed in transfected cells
T1 sequence (P30542 1-326): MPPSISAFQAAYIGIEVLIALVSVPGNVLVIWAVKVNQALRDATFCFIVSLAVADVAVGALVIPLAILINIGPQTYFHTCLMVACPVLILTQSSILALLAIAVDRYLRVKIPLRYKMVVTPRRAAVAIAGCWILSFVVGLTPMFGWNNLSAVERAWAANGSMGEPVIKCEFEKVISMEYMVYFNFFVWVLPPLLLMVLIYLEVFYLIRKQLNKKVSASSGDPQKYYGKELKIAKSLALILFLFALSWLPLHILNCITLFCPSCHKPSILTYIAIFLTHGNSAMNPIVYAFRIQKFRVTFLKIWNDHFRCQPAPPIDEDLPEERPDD
Experimental: Reporter Gene Experiments in Yeast
Agonist activity at human adenosine A1 receptors was measured in yeast cell lines expressing the adenosine A1 receptor together with a chimeric G-protein which linked receptor stimulation to the expression of the enzyme β-galactosidase. Cells were plated out in 96-well plates in culture medium to which was added 2 mM 3-AT (3-aminotriazole) to limit basal growth in the absence of agonist stimulation, and FDG (fluorescein di-β-D-galactopyranoside) as substrate for β-galactosidase, which converts FDG to fluorescein. For measurement of potency, agonists were added to the appropriate wells at a concentration range of approximately 10^−10-10^−5M and incubated at 30° C. for 18 hours. At this point the amount of fluorescein generated was measured in a spectrophotometer. From these readings, the concentration-dependence of the stimulation by the agonist can be calculated. One of the agonists tested on each 96-well plate was the standard non-selective agonist, N-ethylcarboxamidoadenosine (NECA), and the potency of all test agonists is expressed relative to that of the NECA standard.
(ECR=equipotent concentration ratio relative to NECA=1)

[2] = biological target: T2, human adenosine A3 receptors (Homo sapiens, UniProt P0DMS8); assay: Reporter gene experiments in CHO cells (CRE/SPAP, inhibition of forskolin-stimulated SPAP production); type: cell-based; settings: ECR = equipotent concentration ratio relative to NECA = 1; agonist potency, CHO CRE/SPAP reporter gene assay
T2 construct: expressed in transfected cells; host or cells: Chinese hamster ovary (CHO) cells with CRE/SPAP/HYG reporter
T2 sequence (P0DMS8 1-318): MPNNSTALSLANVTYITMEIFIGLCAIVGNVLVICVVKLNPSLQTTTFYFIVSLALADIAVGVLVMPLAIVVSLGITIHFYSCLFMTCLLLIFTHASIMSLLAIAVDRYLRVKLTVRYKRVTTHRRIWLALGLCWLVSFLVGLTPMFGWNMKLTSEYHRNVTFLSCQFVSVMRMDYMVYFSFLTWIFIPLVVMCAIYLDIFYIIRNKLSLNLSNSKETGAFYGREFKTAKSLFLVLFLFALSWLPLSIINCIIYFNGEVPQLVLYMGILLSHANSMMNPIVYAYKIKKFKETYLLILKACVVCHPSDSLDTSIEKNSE
Source text: The compounds useful in the invention are agonists at the adenosine A1 receptor. Preferably they are selective agonists at the adenosine A1 receptor. By selective is meant that the affinity for the A1 receptor is at least 2 times, preferably 5 times and more preferably 10 times greater than the other adenosine receptor subtypes, particularly A3. Agonist selectivity of compounds against other human adenosine receptors can be determined using Chinese hamster ovary (CHO) cells transfected with the gene for the relevant human adenosine receptor following a method based on that of Castanon, K V. and Spevak, W. (1994) Biochem. Biophys. Res. Commun. 198, 626-631. The CHO cells are also transfected with cyclic AMP response elements promoting the gene for secreted placental alkaline phosphatase (SPAP) (Wood, K V. (1995) Cuff. Opinion. Biotechnology, 6, 50-58). The effect of test compounds is determined by their effects on basal levels of cAMP (A2a) or on forskolin-enhanced cAMP (A1 and A3) as reflected by changes in levels of SPAP. EC50 values for compounds are determined as a ratio to that of the non-selective agonist N-ethyl carboxamidoadenosine (NECA). “Adenosine receptors: New opportunities for future drugs” (S. A. Poulsen et al, Bioorg. Med. Chem,. 1998, 6, 619-641) summarises disease conditions that may be treated with adenosine A1 agonists.
Reporter Gene Experiments in CHO cells
Agonist activity at human adenosine A3 receptors was measured in Chinese hamster ovary (CHO) cells containing the CRE/SPAP/HYG (CRE=cyclic AMP response element; HYG=hygromycin resistance; SPAP=secreted placental alkaline phosphatase) reporter gene elements, which upon stimulation of cAMP levels produced SPAP. A cell line was used which was stably transfected with the human adenosine A3 receptor in addition to the above elements. Cells were plated out in 96-well plates in culture medium and incubated at 37° C. for 1 hour. For measurement of potency, agonists were added to the appropriate wells at a concentration range of approximately 10^−10-10^−5M. 15 Min later, cAMP levels were stimulated by addition of a maximal concentration of forskolin. All cells were then incubated for a further 5 hours at 37° C., and cooled to room temperature, after which a substrate for the phosphatase (para-nitrophenol phosphate, pNPP), which is converted by SPAP to a coloured reagent) was then added and the 96-well plates were read in a plate reader. From these readings, the concentration-dependence of the inhibition by the agonist for forskolin-stimulated SPAP production can be calculated. As with the yeast assays, one of the agonists tested on each 96-well plate was the standard non-selective agonist, N-ethylcarboxamidoadenosine (NECA), and the potency of all test agonists is expressed relative to that of the NECA standard.

Compound | Adenosine A1 receptor ECR* [1] | Adenosine A3 receptor ECR* [2]
C#C[C@H]1O[C@@H](n2cnc3c(NC4CC4(C)C)ncnc32)[C@H](O)[C@@H]1O (stereo partly drawn) [Example 18, (2R,3R,4S,5R)-2-{6-[(2,2-Dimethylcyclopropyl)amino]-9H-purin-9-yl}-5-ethynyltetrahydrofuran-3,4-diol] | 6.81 | >3208
C#C[C@H]1O[C@@H](n2cnc3c(N[C@H]4CCO[C@H]4C)ncnc32)[C@H](O)[C@@H]1O [Example 14, (2R,3R,4S,5R)-5-Ethynyl-2-(6-{[(2S,3S)-2-methyltetrahydrofuran-3-yl]amino}-9H-purin-9-yl)tetrahydrofuran-3,4-diol] | 14.86 | >502
C#C[C@H]1O[C@@H](n2cnc3c(Nc4ccc(F)cc4Cl)ncnc32)[C@H](O)[C@@H]1O [Example 35, (2R,3R,4S,5R)-2-{6-[(2-chloro-4-fluorophenyl)amino]-9H-purin-9-yl}-5-ethynyltetrahydrofuran-3,4-diol] | 6.48 | >974
(2R,3R,4S,5R)-2-[6-(cyclobutylamino)-9H-purin-9-yl]-5-ethynyltetrahydrofuran-3,4-diol [Example 5] | 3 | >196
C#C[C@H]1O[C@@H](n2cnc3c(NCC4CC4)ncnc32)[C@H](O)[C@@H]1O [Example 11, (2R,3R,4S,5R)-2-{6-[(Cyclopropylmethyl)amino]-9H-purin-9-yl}-5-ethynyltetrahydrofuran-3,4-diol] | 5 | >210
C#C[C@H]1O[C@@H](n2cnc3c(Nc4cc(Cl)ccc4C)ncnc32)[C@H](O)[C@@H]1O [Example 40, (2R,3R,4S,5R)-2-{6-[(5-chloro-2-methylphenyl)amino]-9H-purin-9-yl}-5-ethynyltetrahydrofuran-3,4-diol] | 16.94 | >505
C#C[C@H]1O[C@@H](n2cnc3c(Nc4cccc(F)c4C)ncnc32)[C@H](O)[C@@H]1O [Example 37, (2R,3R,4S,5R)-5-ethynyl-2-{6-[(3-fluoro-2-methylphenyl)amino]-9H-purin-9-yl}tetrahydrofuran-3,4-diol] | 4.79 | >145
C#C[C@H]1O[C@@H](n2cnc3c(NC4Cc5ccccc5C4)ncnc32)[C@H](O)[C@@H]1O [Example 4, (2R,3R,4S,5R)-2-[6-(2,3-Dihydro-1H-inden-2-ylamino)-9H-purin-9-yl]-5-ethynyltetrahydrofuran-3,4-diol] | 27.96 | >407
C#C[C@H]1O[C@@H](n2cnc3c(NC4CCCCC4)ncnc32)[C@H](O)[C@@H]1O [Example 7, (2R,3R,4S,5R)-2-[6-(Cyclohexylamino)-9H-purin-9-yl]-5-ethynyltetrahydrofuran-3,4-diol] | 11.4 | >178
C#C[C@H]1O[C@@H](n2cnc3c(NC4CCCC4)ncnc32)[C@H](O)[C@@H]1O [Example 12] | 4.47 | >80.2
C#C[C@H]1O[C@@H](n2cnc3c(Nc4ccc(F)c(F)c4)ncnc32)[C@H](O)[C@@H]1O [Example 43, (2R,3R,4S,5R)-2-{6-[(3,4-Difluorophenyl)amino]-9H-purin-9-yl}-5-ethynyltetrahydrofuran-3,4-diol] | 34.9 | >188
C#C[C@H]1O[C@@H](n2cnc3c(N[C@H]4[C@H]5CC[C@H](C5)[C@@H]4C)ncnc32)[C@H](O)[C@@H]1O [Example 8, (2R,3R,4S,5R)-5-Ethynyl-2-(6-{[(1S,2S,3S,4R)-3-methylbicyclo[2.2.1]hept-2-yl]amino}-9H-purin-9-yl)tetrahydrofuran-3,4-diol] | 7.94 | >178
C#C[C@H]1O[C@@H](n2cnc3c(N[C@@H]4CCO[C@@H]4C)ncnc32)[C@H](O)[C@@H]1O [Example 13, (2R,3R,4S,5R)-5-Ethynyl-2-(6-{[(2R,3R)-2-methyltetrahydrofuran-3-yl]amino}-9H-purin-9-yl)tetrahydrofuran-3,4-diol] | 18.86 | >386
C#C[C@H]1O[C@@H](n2cnc3c(NCCS(=O)(=O)NCC)ncnc32)[C@H](O)[C@@H]1O [Example 1, N-Ethyl-2-({9-[(2R,3R,4S,5R)-5-ethynyl-3,4-dihydroxytetrahydrofuran-2-yl]-9H-purin-6-yl}amino)ethanesulfonamide] | 9.95 | >1070
C#C[C@H]1O[C@@H](n2cnc3c(NC4CCN(C(=O)OCC)CC4)ncnc32)[C@H](O)[C@@H]1O [Example 2, Ethyl 4-({9-[(2R,3R,4S,5R)-5-ethynyl-3,4-dihydroxytetrahydrofuran-2-yl]-9H-purin-6-yl}amino)piperidine-1-carboxylate] | 10 | >3580
C#C[C@H]1O[C@@H](n2cnc3c(N[C@H]4C[C@H]5CCC[C@H]54)ncnc32)[C@H](O)[C@@H]1O (relative stereo) [Example 17, (2R,3R,4S,5R)-2-{6-[(1R*,5R*,6S*)-Bicyclo[3.2.0]hept-6-ylamino]-9H-purin-9-yl}-5-ethynyltetrahydrofuran-3,4-diol] | 2.88 | >416
C#C[C@H]1O[C@@H](n2cnc3c(Nc4ccc(Cl)cc4C)ncnc32)[C@H](O)[C@@H]1O [Example 39, (2R,3R,4S,5R)-2-{6-[(4-Chloro-2-methylphenyl)amino]-9H-purin-9-yl}-5-ethynyltetrahydrofuran-3,4-diol] | 7.36 | >168
C#C[C@H]1O[C@@H](n2cnc3c(N[C@H]4CCC[C@@H]4O)ncnc32)[C@H](O)[C@@H]1O [Example 3, (2R,3R,4S,5R)-5-Ethynyl-2-(6-{[(1S,2S)-2-hydroxycyclopentyl]amino}-9H-purin-9-yl)tetrahydrofuran-3,4-diol] | 6.48 | >823
